This passage reports IC50 results from US7868005B2, “Pyrazinyl substituted piperazine-piperidines with CXCR3 antagonist activity” (Schering Corporation, priority 2005, dated 2011).

The structures appear in SMILES notation.

The target in the first experiment is T1, human CXCR3 (N-delta 4) (Homo sapiens, UniProt P49682).
T1 construct: CD8 leader (N); Flag; expressed in transfected cells; membranes prepared
T1 sequence (P49682 5-368 limits assumed): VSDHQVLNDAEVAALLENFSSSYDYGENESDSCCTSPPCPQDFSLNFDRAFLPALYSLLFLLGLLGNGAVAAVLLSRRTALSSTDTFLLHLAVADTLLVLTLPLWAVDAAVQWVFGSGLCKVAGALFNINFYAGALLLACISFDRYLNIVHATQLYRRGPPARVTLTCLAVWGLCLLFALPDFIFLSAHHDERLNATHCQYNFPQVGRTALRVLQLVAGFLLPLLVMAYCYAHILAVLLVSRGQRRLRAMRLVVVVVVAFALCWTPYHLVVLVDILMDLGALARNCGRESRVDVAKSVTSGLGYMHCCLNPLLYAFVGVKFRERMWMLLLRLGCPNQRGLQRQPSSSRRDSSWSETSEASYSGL
Nature of the experiment: Human CXCR3 (N-delta 4) Scintillation Proximity Assay (SPA), [125I] IP-10 binding to Ba/F3-hCXCR3 membranes. The settings on record: IC50 rating, Table 1; read-out: IC50. The source says: The inventive compounds can readily be evaluated to determine activity at the CXCR3 receptors by known methods, such as, for example, development of a human CXCR3 (N-delta 4) Binding Assay.
Cloning and Expression of Human CXCR3 (N-delta 4):
The DNA encoding human CXCR3 was cloned by PCR using human genomic DNA (Promega, Madison, Wis.) as a template. The PCR primers were designed based on the published sequence of human orphan receptor GPR9 (1) with incorporated restriction sites, a Kozak consensus sequence, CD8 leader and Flag tag. The PCR product was subcloned into the mammalian expression vector pME18Sneo, a derivative of the SR-alpha expression vector (designated as pME18Sneo-hCXCR3 (N-delta 4).
IL-3-dependent mouse pro-B cells Ba/F3 were transfected by electroporation in 0.4 ml Dulbecco's PBS containing 4×10^6 cells with 20 μg of pME18Sneo-hCXCR3 (N-delta 4) plasmid DNA. Cells were pulsed at 400 Volts, 100 OHMs, 960 μFd. The transfected cells were under selection with 1 mg/ml G418 (Life Technologies, Gaithersburg, Md.). G418-resistant Ba/F3 clones were screened for CXCR3 expression by specific binding of [^125I] IP-10 (NEN Life Science Products, Boston, Mass.).
Preparation of Ba/F3-hCXCR3 (N-delta 4) Membranes:
Ba/F3 cells expressing human CXCR3 (N-delta 4) were pelleted and resuspended in the lysis buffer containing 10 mM HEPES, pH 7.5 and Complete® protease inhibitors (1 tablet per 100 ml) (Boehringer Mannheim, Indianapolis, Ind.) at a cell density of 20×10^6 cells per ml. After 5 minute incubation on ice, cells were transferred to 4639 cell disruption bomb (Parr Instrument, Moline, Ill.) and applied with 1,500 psi of nitrogen for 30 minutes on ice. Large cellular debris was removed by centrifugation at 1,000×g. Cell membrane in the supernatant was sedimented at 100,000×g. The membrane was resuspended in the lysis buffer supplemented with 10% sucrose and stored at −80° C. Total protein concentration of the membrane was determined by BCA method from Pierce (Rockford, Ill.).
Human CXCR3 (N-delta 4) Scintillation Proximity Assay (SPA):
For each assay point, 2 μg of membrane was preincubated for 1 hr with 300 μg wheat germ agglutinin (WGA) coated SPA beads (Amersham, Arlington Heights, Ill.) in the binding buffer (50 mM HEPES, 1 mM CaCl2, 5 mM MgCl2, 125 mM NaCl, 0.002% NaN3, 1.0% BSA) at room temperature. The beads were spun down, washed once, resuspended in the binding buffer and transferred to a 96-well Isoplate (Wallac, Gaithersburg, Md.). 25 pM of [^125I] IP-10 with tested compounds in a series of titration were added to start the reaction. After 3 hr reaction at room temperature, the amount of [^125I] IP-10 bound to the SPA beads was determined with a Wallac 1450 Microbeta counter.
The Ki ratings for the various compounds of the present invention are given in the afore-mentioned Table 1. From these ratings and value ranges, it would be apparent to the skilled artisan that the compounds of the invention have excellent utility as CXCR3 receptor antagonists.
In general terms: SPA uses beads or plates that emit light when radiolabelled molecules are held near them.
In general, IC50 refers to the concentration that inhibits the measured activity by half. As for `CC[C@H]1CN(c2nc(N)c(C(N)=O)nc2Cl)CCN1C1CCN(Cc2ccc(Cl)cc2)CC1` [compound 1], the IC50 is under 25 nM.

In the case of `CC[C@H]1CN(c2nc(N)c(C(N)=O)nc2Cl)CCN1C1CCN(Cc2ccc(Cl)cc2C(=N)N)CC1` [compound 2], the IC50 was under 25 nM.

For the molecule `CC[C@H]1CN(c2nc(N)c(C(N)=O)nc2Cl)CCN1C1CCN(C(CO)c2ccc(Cl)cc2)CC1` (some centres unmarked) [compound 3], the IC50 is under 25 nM.

Take `CC[C@H]1CN(c2nc(N)c(C(N)=O)nc2Cl)CCN1C1CCN(Cc2ccc(Cl)cc2CCO)CC1` [compound 4]: the IC50 is under 25 nM.

As for `CC[C@H]1CN(c2nc(N)c(C(N)=O)nc2Cl)CCN1C1CCN([C@@H](CO)c2ccc(Cl)cc2)CC1` [compound 5], the IC50 is under 25 nM.

Take `CC[C@H]1CN(c2nc(N)c(C(N)=O)nc2Cl)CCN1C1CCN(Cc2ccc(Cl)cc2CCN)CC1` [compound 6]: the 50% inhibitory concentration (IC50) is under 25 nM.

Turning to `CC[C@H]1CN(c2nc(N)c(C(N)=O)nc2Cl)CCN1C1CCN(Cc2ccc(Cl)cc2C(O)CO)CC1` (some centres unmarked) [compound 7], the IC50 was under 25 nM.

On to `CC[C@H]1CN(c2nc(N)c(C(N)=O)nc2Cl)CCN1C1CCN(Cc2ccc(Cl)cc2C(N)=O)CC1` [compound 8], for which the IC50 was under 25 nM.

`CC[C@H]1CN(c2nc(N)c(C(N)=O)nc2Cl)CCN1C1CCN(Cc2ccc(OC(F)(F)F)cc2)CC1` [compound 9]: the IC50 is under 25 nM.

In the case of `CC[C@H]1CN(c2nc(N)c(C(N)=O)nc2Cl)CCN1C1CCN(Cc2ccc(Cl)cc2F)CC1` [compound 10], the IC50 was under 25 nM.

`CC[C@H]1CN(c2nc(N)c(C(N)=O)nc2Cl)CCN1C1CCN(Cc2ccc(Cl)cc2[C@H](O)C(N)=O)CC1` [compound 11]: the IC50 was under 25 nM.

For `CC[C@H]1CN(c2nc(N)c(C(N)=O)nc2Cl)CCN1C1CCN(Cc2ccc(Cl)cc2[C@H](O)C(=O)NC)CC1` [compound 12], the IC50 was under 25 nM.

As to `CC[C@H]1CN(c2nc(N)c(C(N)=O)nc2Cl)CCN1C1CCN(Cc2ccc(Cl)cc2CCNC(=O)OC(C)(C)C)CC1` [compound 13], the half-inhibitory concentration (IC50) was under 25 nM.

Regarding `CC[C@H]1CN(c2nc(N)c(C(N)=O)nc2Cl)CCN1C1CCN(Cc2ccc(Cl)cc2C(C)CO)CC1` (some centres unmarked) [compound 14], the IC50 is under 25 nM.

As for `CC[C@H]1CN(c2nc(N)c(C(N)=O)nc2Cl)CCN1C1CCN(Cc2ccc(C(=O)OC)cc2)CC1` [compound 15], the IC50 is under 25 nM.

In the case of `CC[C@H]1CN(c2nc(N)c(C(N)=O)nc2Cl)CCN1C1CCN(Cc2ccc(C#N)cc2)CC1` [compound 16], the IC50 was under 25 nM.

In the case of `CC[C@H]1CN(c2nc(N)c(C(N)=O)nc2Cl)CCN1C1CCN(Cc2ccc(Cl)cc2CC(N)=O)CC1` [compound 17], the IC50 was under 25 nM.

In the case of `CC[C@H]1CN(c2nc(N)c(C(N)=O)nc2Cl)CCN1C1CCN(Cc2ccc(Cl)cc2C(O)C(=O)N(C)C)CC1` (some centres unmarked) [compound 18], the IC50 is under 25 nM.

Turning to `CC[C@H]1CN(c2nc(N)c(C(N)=O)nc2Cl)CCN1C1CCN(Cc2ccc(Cl)cc2C(C)(C)CO)CC1` [compound 19], the IC50 is under 25 nM.

Staying with this experiment, now noted: human; read-out: human IC50.
For the molecule `CC[C@H]1CN(c2nc(N)c(C(=O)NCCO)nc2Cl)CCN1C1CCN(Cc2ccc(Cl)cc2CO)CC1` [Formula 7], the IC50 is under 1 nM.

With `CC[C@H]1CN(c2nc(N)c(C(=O)NCCO)nc2Cl)CCN1C1CCN([C@@H](CO)c2ccc(Cl)cc2)CC1` [Formula 8], the IC50 is under 1 nM.

As for `CC[C@H]1CN(c2nc(N)c(C(=O)NC)nc2Cl)CCN1C1CCN(Cc2ccc(Cl)cc2)CC1` [Formula 9], the IC50 is under 1 nM.

Take `CC[C@H]1CN(c2ncc(C(=O)NC3CC3)nc2C)CCN1C1CCN(Cc2ccc(Cl)cc2)CC1` [Formula 10]: the IC50 was under 1 nM.

Consider `CC[C@H]1CN(c2ncc(C(=O)NC3CC3)nc2C)CCN1C1CCN(Cc2ccc(F)c(F)c2)CC1` [Formula 11], for which the IC50 was under 1 nM.

With `CC[C@H]1CN(c2ncc(C(=O)NC3CC3)nc2C)CCN1C1CCN([C@@H](CO)c2ccc(Cl)cc2)CC1` [Formula 12], the IC50 was under 1 nM.

`CC[C@H]1CN(c2ncc(C(N)=O)nc2C(F)(F)F)CCN1C1CCN(C(=O)c2ccc(Cl)cc2)CC1` [Formula 13]: the IC50 is under 1 nM.
